Tests used:
[1] = target: T1, recombinant HSF1 DNA-binding domain (DBD) (Homo sapiens, UniProt Q00613); assay: Differential Scanning Fluorimetry (DSF), HSF1 DBD melting temperature; settings: for ΔTm at 25 µM: Table 1, 5 μM HSF1 DBD, 25PM Compound, positive = stabilizes, negative = destabilizes HSF1; for effect on melting temperature of HSF1: thermal denaturation profiling, FIG. 2
T1 sequence (Q00613 15-120): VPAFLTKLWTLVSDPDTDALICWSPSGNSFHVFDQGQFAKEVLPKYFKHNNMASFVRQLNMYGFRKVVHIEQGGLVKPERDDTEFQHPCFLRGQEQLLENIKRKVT

[2] = system: heat shock induced chaperone (Hsp25 and Hsp70) expression; assay: Heat shock induced chaperone expression in MEFs, immunoblotting; format: cell-based, mouse; settings: heat shock 42° C. 30 mins, 6-hour recovery, FIG. 3
Procedure: The MEFs were then subjected to heat shock stress at 42° C. for 30 mins to activate HSF1. After heat shock, the MEFs were incubated at 37° C. for a 6-hour recovery. The whole cell lysates were collected at the end of the experiment, and proteins of interest, including Hsp25, Hsp70, HSF1 and GAPDH (as loading control) were assessed by immunoblotting with the corresponding antibody.

[3] = target: recombinant protein Hsc70 (Homo sapiens, UniProt P11142); assay: Thermal denaturation of Hsc70 (selectivity); settings: selectivity in binding, FIG. 2
recombinant protein Hsc70, sequence (P11142 whole entry, species assumed): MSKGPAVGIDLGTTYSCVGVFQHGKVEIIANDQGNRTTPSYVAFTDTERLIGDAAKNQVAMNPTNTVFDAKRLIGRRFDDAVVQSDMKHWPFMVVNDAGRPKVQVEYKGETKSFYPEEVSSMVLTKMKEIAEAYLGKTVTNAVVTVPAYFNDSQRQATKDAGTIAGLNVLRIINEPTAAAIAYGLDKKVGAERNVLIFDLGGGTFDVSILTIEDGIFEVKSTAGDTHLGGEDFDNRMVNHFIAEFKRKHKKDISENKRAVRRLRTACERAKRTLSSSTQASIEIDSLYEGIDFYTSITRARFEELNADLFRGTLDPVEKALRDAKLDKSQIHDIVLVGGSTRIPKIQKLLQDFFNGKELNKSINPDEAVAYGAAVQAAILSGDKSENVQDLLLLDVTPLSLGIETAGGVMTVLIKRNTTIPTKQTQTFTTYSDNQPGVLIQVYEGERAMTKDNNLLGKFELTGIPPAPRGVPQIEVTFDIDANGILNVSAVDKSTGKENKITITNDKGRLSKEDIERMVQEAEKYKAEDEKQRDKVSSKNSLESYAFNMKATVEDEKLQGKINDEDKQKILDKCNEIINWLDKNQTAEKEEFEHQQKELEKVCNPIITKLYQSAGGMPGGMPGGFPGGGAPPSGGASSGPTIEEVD

[4] = system: C4-2 malignant prostate cancer cells vs BPH-1 non-tumorigenic prostate cells; assay: AlamarBlue cell viability, C4-2 vs BPH-1; format: cell-based, human; settings: FIG. 6A; for viability of C4-2 compared to BPH-1: 96 hours, AlamarBlue assay; for potency compared to Compound 0017: inhibition of metastatic prostate cancer cell growth
Procedure: The cells were treated for 96 hours with the indicated concentrations of the compounds of the disclosure and cell viability was measured with the AlamarBlue assay. FIG. 6B illustrates the results of Compound 0017 used in a 7-week Maximal Tolerated Dose (MTD) study conducted in mice (3 mice identified as 118, 119 and 120). […] After sacrificing the mice on the last day of the administration, mouse liver and heart tissue was isolated, messenger RNA extracted and the transcript abundance of the HSF1 target gene, Hsp70, was evaluated by qRT-PCR relative to the internal RNA control, GAPDH. The results of the vehicle-treated versus Compound 0017-treated experiments were compared.
Based on the chemical structure of Compound 0017 and its activity, and of other HSF1-interacting chemicals identified in the screen, additional derivatives were designed, synthesized and evaluated for binding to HSF1 and preferential inhibition of metastatic prostate cancer cells (C4-2) versus benign prostate cells (BPH-1).

[5] = target: T2, purified recombinant human HSF1 (HSF1 DNA binding domain) (Homo sapiens, UniProt Q00613); assay: Melting temperature of HSF1 DBD with HSF1 degrader compounds (Sypro orange); settings: 12.5 micromolar compound, 5 micromolar HSF1 DBD, compared to DMSO; read-out: ΔTm (° C.)
T2 sequence (Q00613 15-120): T1 sequence (Q00613 15-120)
Procedure: The melting temperature (ΔTm) for purified recombinant human HSF1 (HSF1 DNA binding domain) was determined in the presence of HSF1 degrader compounds shown in Table 5 and compared to the solvent DMSO. Sypro orange dye was added to the HSF1 DBD (5 micromolar final concentration) in buffer, mixed and distributed to wells in 384 well microtiter plates. HSF1 degrader compound (12.5 micromolar) or DMSO solvent was added to three replicate wells per compound concentration, mixed and plates loaded into a Quant Studio thermnocycler and run on a temperature gradient from 25° C. to 85° C. with increments of 0.5° C. steps. Melting curves were obtained and analyzed using the ThermnoFisher Shift Software 1.4 fitted with a Boltzmann equation to determine the change in melting temperature of the protein in the presence of DMSO as compared to compound. The difference in the melting temperature under these two conditions was assigned as the change in melting temperature of ΔTm.

[6] = system: C4-2 prostate cancer cells; assay: C4-2 cell proliferation, Cell Titre Glo; format: cell-based; settings: Homo sapiens, 48-hour period, 9-point dilution series, read-out: Cell Viability IC50
Procedure: Next, cell viability of C4-2 prostate cancer cells was determined. C4-2 prostate cancer cells were grown in RMPI-1640 (no L-glutamine, Gibco 21870076) supplemented with 10% fetal bovine […] (non-heat-inactivated, Cytiva Hyclone SH30071.03). […] A 9-point dilution series was used to assess the ability of each compound to inhibit the growth of C4-2 prostate cancer cells over a 48-hour period, as compared to negative control solvent, DMSO. Cell proliferation was measured by the Cell Titre Glo assay using 384 well microtiter plate reader to quantitate luminescence. The IC50 was determined from the values obtained.

DNAJB1 equals Hsp40 = assay: HSF1 target gene transcript expression qPCR in C4-2 cells, Hsp40; format: cell-based; settings: Homo sapiens, 2 hours then SNX-2112 (100 nM) 5 hr, vs GAPDH and DMSO
Procedure: (§1) Next, the change in heat shock protein gene expression in C4-2 prostate cancer cells was determined. C4-2 prostate cancer cells were grown in RMPI-1640 (no L-glutamine, Gibco 21870076) supplemented with 10% fetal bovine […] (non-heat-inactivated, Cytiva Hyclone SH30071.03). To quantitatively measure the inhibition of HSF1 activity in C4-2 prostate cancer cells, compounds or DMSO were added to triplicate C4-2 cell cultures for 2 hours. HSF1 activity was then stimulated with the Hsp90 inhibitor SNX-2112 (100 nM) for an additional 5 hr at 37° C. in the presence of HSF1 degrader compounds or DMSO. Total RNA was extracted, converted to cDNA and used in qPCR assays to quantify the change in HSF1 target gene transcript expression (HSPA4L equals Hsp70, HSPB1 equals Hsp27 and DNAJB1 equals Hsp40) as compared to GAPDH internal control gene, and then compared to DMSO negative control.

Hsp70 = assay: HSF1 target gene transcript expression qPCR in C4-2 cells, Hsp70; format: cell-based; settings: Homo sapiens, 2 hours then SNX-2112 (100 nM) 5 hr, vs GAPDH and DMSO
Procedure: as §1

[7] = Rat liver microsome stability; format: in vitro ADME; settings: rat liver microsomes, 37° C., read-out: Microsome Stability T1/2
Procedure: Next, the microsome stability in rats was determined for select compounds from Table 5. Test compounds are incubated with rat liver microsomes supplemented with co-factors at 37° C. Typical conditions were a compound concentration of 1 μM and 5 sampling time-points (0, 5, 15, 30 and 45 minutes), in duplicate. At each time-point, the reactions were terminated by the addition of organic solvent. The samples were centrifuged and the parent compound concentration was evaluated by LC-MS/MS measurements. Control compounds were included with well-established stability when incubated with rat microsomes. Multiple time points were used to determine % parent compound remaining at each time point and to calculate the Tiu2 for each compound in rat liver microsomes. A higher T1/2 indicates increased compound stability in microsomes.

**Q.** For `O=C(Nc1ccccc1)Nc1ccccc1` [1,3-diphenylurea, reference compound], which “binding to HSF1” value ([1]; thermal denaturation assay) is on record?
**A.** fails to bind HSF1

**Q.** And the “heat shock induced chaperone (Hsp25 and Hsp70) expression” value [2]?
**A.** showed no impact on HSF1 activity

**Q.** Which ΔTm at 25 µM [1] does the source give for `O=C(Nc1ccc(F)cc1)Nc1ccc(Br)c(C(F)(F)F)c1` [Compound 0005, 1-(4-bromo-3-(trifluoromethyl)phenyl)-3-(4-fluorophenyl)urea] here?
**A.** 5.1 °C

**Q.** And the “effect on melting temperature of HSF1” value [1]?
**A.** stabilized the melting temperature of HSF1

**Q.** What about the “effect on melting of unrelated protein Hsc70” value [3] of the same compound?
**A.** did not affect the melting

**Q.** For `O=C(Nc1ccc(Cl)cc1)Nc1csc([N+](=O)[O-])c1` [Compound 0009], which ΔTm at 25 µM [1] is on record?
**A.** 4.1 °C

**Q.** And the “effect on melting temperature of HSF1” value [1]?
**A.** stabilized the melting temperature of HSF1

**Q.** What about the “effect on melting of unrelated protein Hsc70” value [3] of the same compound?
**A.** did not affect the melting

**Q.** With `COc1cccc(-c2cnc(Nc3ccc(F)cc3)s2)c1` [Compound 0050] as the compound, how does the ΔTm at 25 µM [1] read?
**A.** 2.93 °C

**Q.** What about the “effect on melting temperature of HSF1” value [1] of the same compound?
**A.** stabilized the melting temperature of HSF1

**Q.** And the “effect on melting of unrelated protein Hsc70” value [3]?
**A.** did not affect the melting

**Q.** Which results are given for `O=C(Nc1ccc(F)cc1)Nc1ccc(Cl)c(S(=O)(=O)C(F)(F)F)c1` [Compound 0054, 1-[4-chloro-3-(trifluoromethylsulfonyl)phenyl]-3-(4-fluorophenyl)urea]?
**A.** ΔTm at 25 µM [1]: 2.9 °C; viability of C4-2 compared to BPH-1 [4]: preferentially inhibit the viability; potency compared to Compound 0017 [4]: increased potency compared to Compound 0017

**Q.** With `O=c1c(Nc2ccc(F)cc2)c(Nc2ccc(Cl)c(C(F)(F)F)c2)c1=O` [Compound 0064, 3-[4-chloro-3-(trifluoromethyl)anilino]-4-(4-fluoroanilino)cyclobut-3-ene-1,2-dione] as the compound, how does the ΔTm at 25 µM [1] read?
**A.** 2.3 °C

**Q.** And the “viability of C4-2 compared to BPH-1” value [4]?
**A.** preferentially inhibit the viability

**Q.** What about the “potency compared to Compound 0017” value [4] of the same compound?
**A.** increased potency compared to Compound 0017

**Q.** Which ΔTm at 12.5 µM [5] does the source give for `N#Cc1ccc(NC(=O)Nc2ccc(Cl)c(S(=O)(=O)C(F)(F)F)c2)cc1` [Compound 243, 1-(4-chloro-3-((trifluoromethyl)sulfonyl)phenyl)-3-(4-cyanophenyl)urea] here?
**A.** 1.77 °C

**Q.** And the IC50 [6]?
**A.** 1.76 µM

**Q.** And the mrna remaining at 10 µM (DNAJB1 equals Hsp40)?
**A.** 39.5%

**Q.** And the mrna remaining at 10 µM (Hsp70)?
**A.** 38.5%

**Q.** And the half-life at 1 μM [7]?
**A.** 2.56 h

**Q.** Which ΔTm at 12.5 µM [5] does the source give for `N#Cc1ccc(NC(=O)Nc2ccc(Cl)c(S(=O)(=O)C(F)(F)F)c2)cc1C(F)(F)F` [Compound 257, 1-(4-chloro-3-((trifluoromethyl)sulfonyl)phenyl)-3-(4-cyano-3-(trifluoromethyl)phenyl)urea] here?
**A.** 1.62 °C

**Q.** And the IC50 [6]?
**A.** 2.15 µM

**Q.** And the mrna remaining at 10 µM (DNAJB1 equals Hsp40)?
**A.** 7%

**Q.** And the mrna remaining at 10 µM (Hsp70)?
**A.** 20%

**Q.** And the half-life at 1 μM [7]?
**A.** 6.16 h

**Q.** What does the source list for `N#Cc1ccc(NC(=O)Nc2ccc(Cl)c(C(F)(F)F)c2)cc1C(F)(F)F` [Compound 258, 1-(4-chloro-3-(trifluoromethyl)phenyl)-3-(4-cyano-3-(trifluoromethyl)phenyl)urea]?
**A.** ΔTm at 12.5 µM [5]: 2.26 °C; IC50 [6]: 1.66 µM; mrna remaining at 10 µM (DNAJB1 equals Hsp40): 65%; mrna remaining at 10 µM (Hsp70): 60%; half-life at 1 μM [7]: 10.6 h

— US20240317727A1 (Duke University, priority 2018, published 2024)
